Laboratory results reported in US9320276B2, “N-hetarylmethyl pyrazolylcarboxamides” (BAYER INTELLECTUAL PROPERTY GMBH, priority 2010, dated 2016).

What was measured:
[1] = logP by HPLC on reversed-phase column (EEC Directive 79/831 Annex V.A8); type: physicochemical; conditions: 40° C., 0.1% aqueous formic acid and acetonitrile, linear gradient 10% to 90% acetonitrile
Summary of the method: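 Reversed-phase C18 HPLC at 40° C with 0.1% aqueous formic acid/acetonitrile, linear gradient 10% to 90% acetonitrile. LogP obtained from retention time by linear interpolation between successive unbranched alkan-2-ones (3 to 16 carbons) of known logP. Lambda-max taken from UV spectra at 200-400 nm at chromatographic peak maxima.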

Sphaerotheca fuliginea = test: in vivo preventive test on Sphaerotheca fuliginea (cucumber); conditions: 500 ppm of active ingredient, evaluated 7 days after inoculation
Summary of the method: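 Active compound in DMF with alkylarylpolyglycolether emulsifier, diluted in water and sprayed on young cucumber plants at the stated rate. One day later, plants inoculated with S. fuliginea spore suspension and kept at about 23 °C, 70% RH; efficacy scored 7 days post-inoculation, 0% = untreated, 100% = no disease.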

Alternaria solani = test: in vivo preventive test on Alternaria solani (tomato); conditions: 500 ppm of active ingredient, evaluated 7 days after inoculation
Summary of the method: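 Young tomato plants were sprayed preventively with compound in DMF/alkylarylpolyglycolether diluted in water, then inoculated one day later with A. solani spores. Incubation was 1 day at about 22 °C and 100% RH, then about 20 °C and 96% RH. Efficacy was scored 7 days after inoculation (0% = untreated control, 100% = no disease).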

Pyrenophora teres = test: in vivo preventive test on Pyrenophora teres (barley); conditions: 500 ppm of active ingredient, evaluated 7-9 days after inoculation
Summary of the method: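 Young barley plants sprayed with compound in DMF/alkylaryl polyglycol ether emulsion; inoculated with P. teres spores one day later. 48 h at 22 °C, 100% humidity, then greenhouse ~20 °C, ~80% humidity; efficacy scored 7-9 days post-inoculation, 0% = untreated, 100% = no disease.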

Venturia inaequalis = test: in vivo preventive test on Venturia inaequalis (apple scab); conditions: 100 ppm of active ingredient, evaluated 10 days after inoculation
Description: Solvent: 24.5 parts by weight of acetone • 24.5 parts by weight of N,N-dimethylacetamide Emulsifier: 1 part by weight of alkylaryl polyglycol ether To produce a suitable preparation of active compound, 1 part by weight of active compound is mixed with the stated amounts of solvent and emulsifier, and the concentrate is diluted with water to the desired concentration. To test for preventive activity, young plants are sprayed with the preparation of active compound at the stated rate of application. After the spray coating has dried on, the plants are inoculated with an aqueous conidia suspension of the causal agent of apple scab (Venturia inaequalis) and then remain for 1 day in an incubation cabinet at approximately 20° C. and a relative atmospheric humidity of 100%. The plants are then placed in a greenhouse at approximately 21° C. and a relative atmospheric humidity of approximately 90%. The test is evaluated 10 days after the inoculation. 0% means an efficacy which corresponds to that of the untreated control, while an efficacy of 100% means that no disease is observed.

Septoria tritici = test: in vivo preventive test on Septoria tritici (wheat); conditions: 500 ppm of active ingredient, evaluated 21 days after inoculation
Description: Solvent: 49 parts by weight of N,N-dimethylacetamide Emulsifier: 1 part by weight of alkylaryl polyglycol ether To produce a suitable preparation of active compound, 1 part by weight of active compound or active compound combination is mixed with the stated amounts of solvent and emulsifier, and the concentrate is diluted with water to the desired concentration. To test for preventive activity, young plants are sprayed with the preparation of active compound or active compound combination at the stated rate of application. After the spray coating has been dried, the plants are sprayed with a spore suspension of Septoria tritici. The plants remain for 48 hours in an incubation cabinet at approximately 20° C. and a relative atmospheric humidity of approximately 100% and afterwards for 60 hours at approximately 15° C. in a translucent incubation cabinet at a relative atmospheric humidity of approximately 100%. The plants are placed in the greenhouse at a temperature of approximately 15° C. and a relative atmospheric humidity of approximately 80%. The test is evaluated 21 days after the inoculation. 0% means an efficacy which corresponds to that of the untreated control, while an efficacy of 100% means that no disease is observed.

Leptosphaeria nodorum = test: in vivo preventive test on Leptosphaeria nodorum (wheat); conditions: 500 ppm of active ingredient, evaluated 7-9 days after inoculation
Description: Solvent: 49 parts by weight of N,N-dimethylacetamide Emulsifier: 1 part by weight of alkylaryl polyglycol ether To produce a suitable preparation of active compound, 1 part by weight of active compound is mixed with the stated amounts of solvent and emulsifier, and the concentrate is diluted with water to the desired concentration. To test for preventive activity, young plants are sprayed with a preparation of active compound at the stated rate of application. One day after this treatment, the plants are inoculated with an aqueous spore suspension of Leptosphaeria nodorum. The plants remain for 48 hours in an incubation cabinet at 22° C. and a relative atmospheric humidity of 100%. Then the plants are placed in a greenhouse at a temperature of approximately 22° C. and a relative atmospheric humidity of approximately 90%. The test is evaluated 7-9 days after the inoculation. 0% means an efficacy which corresponds to that of the untreated control, while an efficacy of 100% means that no disease is observed.

[2] = HPLC on reversed-phase column (C 18)

logP [1, 2] | logP ([1]; HPLC, reversed-phase column (C 18)) | Structure (SMILES) | Efficacy (Sphaerotheca fuliginea) [%] | Efficacy (Alternaria solani) [%] | Efficacy (Pyrenophora teres) [%] | Efficacy (Venturia inaequalis) [%] | Efficacy (Septoria tritici) [%] | Efficacy (Leptosphaeria nodorum) [%]
4.03 | – | CC(c1cc(Cl)sc1Cl)N(C(=O)c1c(C(F)F)nn(C)c1F)C1CC1 (stereo not shown) [Example 128] | 98 | 100 | 100 | 100 | 90 | 100
4.41 | – | Cc1sc(-c2ccccc2)cc1C(C)N(C(=O)c1c(C(F)F)nn(C)c1F)C1CC1 (stereo not shown) [Example 147] | 88 | 95 | 100 | 100 | 80 | 93
– | 3.94 | CC(C)c1nn(-c2ccccc2)c(Cl)c1CN(C(=O)c1c(C(F)F)nn(C)c1F)C1CC1 [Example 169] | 100 | 100 | 100 | – | 100 | 100

The next lines start with the compound.

Structure (SMILES) | logP [1, 2] | logP ([1]; HPLC, reversed-phase column (C 18)) | Efficacy (Sphaerotheca fuliginea) [%] | Efficacy (Alternaria solani) [%] | Efficacy (Pyrenophora teres) [%] | Efficacy (Venturia inaequalis) [%] | Efficacy (Septoria tritici) [%] | Efficacy (Leptosphaeria nodorum) [%]
Cn1nc(C(F)F)c(C(=S)N(Cc2cccc3ccsc23)C2CC2)c1F [Example 95] | 3.83 | – | 88 | 95 | 100 | 99 | 80 | –
CC(c1cccc2ccsc12)N(C(=O)c1c(C(F)F)nn(C)c1F)C1CC1 (stereo not shown) [Example 91] | 3.44 | – | 88 | 95 | 100 | 100 | 100 | 100
CC(c1cc2ccccc2s1)N(C(=O)c1c(C(F)F)nn(C)c1F)C1CC1 (racemic) [Example 80] | 3.69 | – | 99 | – | 100 | 100 | 100 | 100
CC(c1cc2ccccc2o1)N(C(=O)c1c(C(F)F)nn(C)c1F)C1CC1 (racemic) [Example 70] | 3.42 | – | 98 | 100 | 100 | 100 | 100 | 83
